According to ChEMBL document CHEMBL4651402, “Screening of ~5500 FDA-approved drugs and clinical candidates for anti-SARS-CoV-2 activity” (2021):
Structures can show the parent of a compound that is named as a salt.

Tested on: SARS-CoV-2
Assay: microbe, parasite or virus in culture
Conditions: Severe acute respiratory syndrome coronavirus 2, Vero C1008, 48 h

SMILES	IC50 [µM]	IC50 (read-out: pIC50 (converted)) [µM]
CC[C@H]1OC(=O)[C@H](C)[C@@H](O[C@H]2C[C@@](C)(OC)[C@@H](O)[C@H](C)O2)[C@H](C)[C@@H](O[C@@H]2O[C@H](C)C[C@H](N(C)C)[C@H]2O)[C@](C)(OC)C[C@@H](C)C(=O)[C@H](C)[C@@H](O)[C@]1(C)O [CLARITHROMYCIN]	> 20	> 20
O=C(O)[C@H]1/C(=C/CO)O[C@@H]2CC(=O)N21 [CLAVULANIC ACID]	> 20	> 20
CN1C(=O)CN2CCc3ccccc3C2c2cc(Cl)ccc21 (centres undefined) [CLAZOLAM]	> 20	> 20
N#CC(c1ccc(Cl)cc1)c1ccc(-n2ncc(=O)[nH]c2=O)cc1Cl (centres undefined) [CLAZURIL]	> 20	> 20
COc1cc(N)c(Cl)cc1C(=O)NC1CCN(Cc2ccccc2)CC1 [CLEBOPRIDE]	> 20	> 20
Clc1ccc(Cn2c(CN3CCCC3)nc3ccccc32)cc1 [CLEMIZOLE]	> 20	> 20
CC(C)(C)NCC(O)c1cc(Cl)c(N)c(Cl)c1 (centres undefined) [CLENBUTEROL]	> 20	> 20
NC1CCN(c2c(F)cc3c(=O)c(C(=O)O)cn(C4CC4)c3c2Cl)C1 (centres undefined) [CLINAFLOXACIN]	> 20	> 20
CCC[C@@H]1C[C@@H](C(=O)N[C@@H]([C@H]2O[C@H](SC)[C@H](O)[C@@H](O)[C@H]2O)[C@H](C)Cl)N(C)C1 [CLINDAMYCIN HYDROCHLORIDE]	> 20	> 20
Oc1c(I)cc(Cl)c2cccnc12 [CLIOQUINOL]	> 20	> 20
CN1C(=O)CC(=O)N(c2ccccc2)c2cc(Cl)ccc21 [CLOBAZAM]	> 20	> 20
CCC(=O)O[C@]1(C(=O)CCl)[C@@H](C)C[C@H]2[C@@H]3CCC4=CC(=O)C=C[C@]4(C)[C@@]3(F)[C@@H](O)C[C@@]21C [CLOBETASOL PROPIONATE]	> 20	> 20
C[C@H]1C[C@H]2[C@@H]3CCC4=CC(=O)C=C[C@]4(C)[C@@]3(F)[C@@H](O)C[C@]2(C)[C@@]1(O)C(=O)CCl [CLOBETASOL]	> 20	> 20
CC(CN(C)C)C(C)(O)Cc1ccc(Cl)cc1 (centres undefined) [CLOBUTINOL]	> 20	> 20
NC(=O)C1(N2CCCCC2)CCN(CCCN2c3ccccc3CCc3ccc(Cl)cc32)CC1 [CLOCAPRAMINE]	> 20	> 20
C[C@@H]1C[C@H]2[C@@H]3C[C@H](F)C4=CC(=O)C=C[C@]4(C)[C@@]3(Cl)[C@@H](O)C[C@]2(C)[C@H]1C(=O)COC(=O)C(C)(C)C [CLOCORTOLONE PIVALATE]	> 20	> 20
CCN(CC)CCN(CC)CC(=O)Nc1ccccc1Cl [CLODACAINE]	> 20	> 20
CN(C)CCCn1c(=O)n(-c2ccccc2)c2cc(Cl)ccc21 [CLODAZON]	> 20	> 20
Nc1nc(Cl)nc2c1ncn2[C@@H]1O[C@H](CO)[C@@H](O)[C@@H]1F [CLOFARABINE]	> 20	> 20
CC(C)/N=c1\cc2n(-c3ccc(Cl)cc3)c3ccccc3nc-2cc1Nc1ccc(Cl)cc1 [CLOFAZIMINE]	> 20	> 20
CCN(CC)CCNC(=O)COc1ccc(Cl)cc1 [CLOFEXAMIDE]	> 20	> 20
CCOC(=O)C(C)(C)Oc1ccc(Cl)cc1 [CLOFIBRATE]	> 20	> 20
CC(C)(Oc1ccc(Cl)cc1)C(=O)O [CLOFIBRIC ACID]	> 20	> 20
CC(C)(C)CC(C)(C)c1ccc(O)c(Cc2ccc(Cl)cc2Cl)c1 [CLOFOCTOL]	> 20	> 20

SMILES	IC50 [µM]	IC50 (read-out: pIC50 (converted)) [µM]
CN(C)CCCC1c2ccccc2Nc2ccc(Cl)cc21 (centres undefined) [CLOMACRAN]	> 20	> 20
NC1=NCC(c2ccc(Cl)cc2)O1 (centres undefined) [CLOMINOREX]	> 20	> 20
O=C1CN=C(c2ccccc2Cl)c2cc([N+](=O)[O-])ccc2N1 [CLONAZEPAM]	> 20	> 20
Clc1cccc(Cl)c1NC1=NCCN1 [CLONIDINE]	> 20	> 20
Cc1c(Cl)cccc1Nc1ncccc1C(=O)OCC(O)CO (centres undefined) [CLONIXERIL]	> 20	> 20
Cc1c(Cl)cccc1Nc1ncccc1C(=O)O [CLONIXIN]	> 20	> 20
C[C@@H]1CCC[C@H](C)N1NC(=O)c1ccc(Cl)c(S(N)(=O)=O)c1 [CLOPAMIDE]	> 20	> 20
Clc1ccc(C(OCCN2CCCCC2)c2ccccc2)cc1 (centres undefined) [CLOPERASTINE]	> 20	> 20
Cc1nc(C)c(Cl)c(O)c1Cl [CLOPIDOL]	> 20	> 20
O=c1[nH]c2cc(Cl)ccc2n1C1CCN(CCCC(c2ccc(F)cc2)c2ccc(F)cc2)CC1 [CLOPIMOZIDE]	> 20	> 20
Cc1cc(CC(=O)O)c(C)n1-c1ccc(Cl)cc1 [CLOPIRAC]	> 20	> 20
C#CCN(C)CCCOc1ccc(Cl)cc1Cl [CLORGILINE]	> 20	> 20
O=C1c2ccccc2C(=O)C1c1ccc(Cl)cc1 [CLORINDIONE]	> 20	> 20
O=C(CCCN1CCC(C(=O)c2ccc(Cl)cc2)CC1)c1ccc(F)cc1 [CLOROPERONE]	> 20	> 20
CN1CCN(C2Cc3ccccc3Sc3ccc(Cl)cc32)CC1 (centres undefined) [CLOROTEPINE]	> 20	> 20
CC(C)NCC(O)c1ccccc1Cl (centres undefined) [CLORPRENALINE]	> 20	> 20
Nc1cc(C(Cl)=C(Cl)Cl)c(S(N)(=O)=O)cc1S(N)(=O)=O [CLORSULON]	> 20	> 20
CC(C)(N)Cc1ccccc1Cl [CLORTERMINE]	> 20	> 20
Cc1cc(C(C#N)c2ccc(Cl)cc2)c(Cl)cc1NC(=O)c1cc(I)cc(I)c1O (centres undefined) [CLOSANTEL]	> 20	> 20
CN1CCN(C2=Nc3ccccc3Sc3ccc(Cl)cc32)CC1 [CLOTHIAPINE]	> 20	> 20
Clc1ccccc1C(c1ccccc1)(c1ccccc1)n1ccnc1 [CLOTRIMAZOLE]	> 20	> 20
Cc1onc(-c2ccccc2Cl)c1C(=O)N[C@@H]1C(=O)N2[C@@H]1SC(C)(C)[C@@H]2C(=O)O [CLOXACILLIN]	> 20	> 20
O=C1CN2CCOC2(c2ccccc2Cl)c2cc(Cl)ccc2N1 (centres undefined) [CLOXAZOLAM]	> 20	> 20
Oc1ccc(Cl)c2cccnc12 [CLOXYQUIN]	> 20	> 20

SMILES	IC50 [µM]	IC50 (read-out: pIC50 (converted)) [µM]
CN1CCN(C2=Nc3cc(Cl)ccc3Nc3ccccc32)CC1 [CLOZAPINE]	> 20	> 20
COC(=O)[C@H]1[C@@H](OC(=O)c2ccccc2)C[C@@H]2CC[C@H]1N2C [COCAINE]	> 20	> 20
C=C[C@@]1(C)CC(=O)[C@]2(O)[C@@]3(C)[C@@H](O)CCC(C)(C)[C@@H]3[C@H](O)[C@H](OC(C)=O)[C@@]2(C)O1 [COLFORSIN]	> 20	> 20
CC(C)(C)NCC(O)c1ccc(O)c(O)c1 (centres undefined) [COLTEROL]	> 20	> 20
COc1ccc(/C=C\c2cc(OC)c(OC)c(OC)c2)cc1O [COMBRETASTATIN A4]	> 20	> 20
C[C@@H]1O[C@@H](O[C@H]2CC[C@]3(C=O)[C@H]4CC[C@]5(C)[C@@H](C6=CC(=O)OC6)CC[C@]5(O)[C@@H]4CC[C@]3(O)C2)[C@H](O)[C@H](O)[C@H]1O [CONVALLATOXIN]	> 20	> 20
Nc1ncnc2c1ncn2[C@@H]1O[C@H](CO)C[C@H]1O [CORDYCEPIN]	> 20	> 20
CCOC[C@]12Cc3cnn(-c4ccc(F)cc4)c3C=C1CCN(S(=O)(=O)c1ccc(C(F)(F)F)cc1)C2 [CORT 108297]	> 20	> 20
C[C@]12C[C@H](O)[C@H]3[C@@H](CCC4=CC(=O)CC[C@@]43C)[C@@H]1CC[C@@H]2C(=O)CO [CORTICOSTERONE]	> 20	> 20
CC(=O)OCC(=O)[C@@]1(O)CC[C@H]2[C@@H]3CCC4=CC(=O)CC[C@]4(C)[C@H]3C(=O)C[C@@]21C [CORTISONE ACETATE]	> 20	> 20
C[C@]12CCC(=O)C=C1CC[C@@H]1[C@@H]2CC[C@@]2(C)[C@H]1CC[C@]2(O)C(=O)CO [CORTODOXONE]	> 20	> 20
COc1c2c(cc3c1OCO3)CC[N+](C)=C2 [COTARNINE]	> 20	> 20
CN1C(=O)CC[C@H]1c1cccnc1 [COTININE]	> 20	> 20
CCOP(=S)(OCC)Oc1ccc2c(C)c(Cl)c(=O)oc2c1 [COUMAPHOS]	> 20	> 20
O=c1ccc2ccccc2o1 [COUMARIN]	> 20	> 20
CC(=O)Nc1ccc(C(=O)NC(C)(C)C)cc1 [CP1-1189]	> 20	> 20
COc1ccccc1CN[C@H]1CCCN[C@H]1c1ccccc1 [CP-99994]	> 20	> 20
COCC(=O)NC/C=C/c1ccc2ncnc(Nc3ccc(Oc4ccc(C)nc4)c(C)c3)c2c1 [CP-724714]	> 20	> 20
CCc1nc2c(N)nc3ccccc3c2n1CCCCNS(C)(=O)=O [CPG-52852]	> 20	> 20
O=C(O)CCCCC(CCSCc1ccccc1)SCc1ccccc1 (centres undefined) [CPI 613]	> 20	> 20
COc1cc(C)[nH]c(=O)c1CNC(=O)c1c(C)n([C@H](C)C2CCN(CC(F)(F)F)CC2)c2ccccc12 [CPI-1205]	> 20	> 20
CNC(=O)c1nnc(NC(=O)C2CC2)cc1Nc1cccc(-c2ncn(C)n2)c1OC [CRAVACITINIB]	> 20	> 20
CN(CC(=O)O)C(=N)N [CREATINE]	> 20	> 20
CN1CC(=O)NC1=N [CREATININE]	> 20	> 20
